From patent US20120065228A1, “COMPOSITIONS AND METHODS FOR TREATING, CONTROLLING, REDUCING, OR AMELIORATING OCULAR INFLAMMATORY WITH LOWER RISK OF INCREASED INTRAOCULAR PRESSURE” (priority 2007, published 2012)

Experiments:
[1] = system: intraocular pressure (IOP) in New Zealand White rabbits; assay: Intraocular pressure in New Zealand White rabbits, topical dosing four times daily; format: in vivo
Description: On Days 1-31, animals received daily topical doses of the appropriate test article into the right eye. Animals were dosed four times per day, with doses administered 2 hours apart. Doses were administered using a calibrated 50-μL pipette. The eyelids were held close for 10 seconds immediately following dosing. The time of each dose administration was recorded.
Intraocular pressure (“IOP”) was determined for both eyes of each animal on Days 3, 5, 10, 12, 16, 18, 22, 24, 26, 30, and 32. LOP was evaluated with a Medtronic Solan, Model 30 classic pneumatonometer. Proparacaine hydrochloride 0.5% (1 drop) was delivered to each eye prior to IOP measurement. IOP was measured on Monday, Wednesday, and Friday of each week. A two-point diurnal curve was established: IOP was recorded at 8 a.m. and 12 p.m. on Day 3, and at 8 a.m. and 2 p.m. on later days, with a ±1 hour range for each of these times. The time of the measurements was recorded.
Descriptive statistics were prepared for IOP data of each treatment group (left and right eyes separately) at each measurement interval. The statistics included the number of observations (“N”), mean, standard deviation (“STD”), and standard error (“SEM”). Statistical analyses were conducted on IOP results using Statistical Analysis Systems (SAS Institute, Inc., Cary, N.C., V8.0). Parameters were evaluated using analysis of variance/GLM Procedure followed by Tukey's Standardized Range Test (Tukey, 1985) for post hoc comparisons of group means. The level of significance was set at a probability of p<0.05 for all statistical procedures. Group IOP means were compared at each interval, with left and right eyes compared separately.
IOP data for the following six animals were excluded from group statistics: Group A, Nos. 3081, 3037, 3068, and 3011; Group C, No. 3034; and Group E, No. 3084.

myocilin mRNA = assay: Myocilin mRNA expression in monkey TM cells (qRT-PCR); format: cell-based, rhesus monkeys (Macaca mulatta); conditions: Macaca mulatta; cultured monkey TM cells, weighted average, two dose-response studies each using two TM cell strains; read-out: EC50 ± SE, expression of myocilin mRNA
Description: For each study, up to nine TM cell strains, each derived from an individual monkey, were tested separately. Cells were thawed and seeded into 12- or 48-well clusters (Falcon, BD Biosciences; 150,000 and 30,000 cells/well, respectively) in proliferation medium. When cells were 75% to 90% confluent proliferation medium was replaced by a 5:4 mixture of HESFM and Dulbecco's MEM, respectively, supplemented with 10% FBS, with added taurine, ascorbic acid phosphate, glutathione, and antibiotic as for proliferation medium (above), and with 2.72 g/L glucose and 1.72 g/L fructose. At confluence, the medium was changed to Dulbecco's MEM, containing 10% FBS^40, ascorbic acid phosphate, antibiotic, 2.72 g/L glucose and 1.72 g/L fructose. Cells were maintained as stable, confluent monolayers in this latter medium for 4 to 7 days before experimental treatments commenced.
After quantification of purified total RNA (Quant-iT RNA Assay kit, Molecular Probes, Eugene, Oreg.), equivalent amounts of this RNA were apportioned to generate first-strand cDNAs for each treatment sample, using random primers, (Affinity Script, Stratagene, La Jolla, Calif.). Oligonucleotide myocilin primers, designed based on the cynomolgus MYOC gene, and fluorescent Taqman probe (Applied Biosystems, Foster City, Calif.) were used for PCR amplification. Equal amounts of total RNA-equivalent mass (approximate range […]) reactant cDNA were added to the PCR Master Mix (Stratagene) and myocilin primers/Taqman probe. Amplification was performed in a thermocycler (Mx3005P, Stratagene), with an initial denaturation step at 95° C. for 10 min, followed by 40 cycles of 95° C. for 15 sec and 60° C. for 1 min for extension. Every run included standard controls (i.e., either without reverse transcriptase or lacking template). Relative quantities of myocilin mRNA abundance were determined using differences in threshold cycles (“Ct”) between vehicle control and drug treatments. Each sample was analyzed in triplicate wells, and the corresponding values averaged for further quantitative analysis. Myocilin mRNA abundance, expressed in proportion to vehicle control-treated samples, was calculated using the Mx3005P software.
Data underwent Box-Cox transformations for one- or two-way analysis of variance (ANOVA), followed by the Tukey-Kramer test, using JMP software (SAS, Cary, N.C.). The specific transformations used for analyses are mentioned in the figure legends. For each set of triplicate samples from the individual monkey TM cell strains tested, Western blot densitometry values for myocilin protein detected in CM (as geometric means), and relative abundance of myocilin mRNA (as geometric means), were plotted as a function of drug concentrations. P-values less than 0.05 were considered statistically significant. […]

## C[C@@H]1C[C@H]2[C@@H]3CCC4=CC(=O)C=C[C@]4(C)[C@@]3(F)[C@@H](O)C[C@]2(C)[C@@]1(O)C(=O)CO [dexamethasone, reference compound]
[1]; 0.1% dexamethasone suspension, on several days, p<0.05
  Mean IOP versus corresponding eyes of other groups: significantly higher
[1]; rabbits, right eye four times daily up to 31 days, dexamethasone 0.1%, BOL-303242-X 1, 5, 10 mg/g, left and right eyes
  Mean IOP after treatment began: increased sharply
Myocilin mRNA
  EC50: 14.7 ± 1.27 nM
